The subject of one experiment is HeLa-FKBP12 cells. Put plainly: Biosensor cell permeability assay (FKBP destabilizing mutant, whole cell). To be noted: 72 hrs. It counts as cell-based. The protocol:
Cell permeability of compounds can be determined using the following protocol.
This protocol utilizes a modified FKBP or cyclophilin destabilizing mutant to determine the bioactivity of FKBP binding compounds or cyclophilin binding compounds in whole cell assay.
DMEM, DMEM without Phenol Red, 10% FBS, 1× Sodium Pyruvate, 1× Glutamax. Add 125 ul of media with compound per well.
Experimental Protocol/Description of Assay: Plate HeLa-FKBP12 cells (for FKBP binding compounds) or HeLa-CyclophilinA cells (for cyclophilin binding compounds) and seed overnight at 5k/well (approximately −18 hrs.). Using a multi-channel pipet, take out the old media and add ˜125 ul of new media with compounds. Compounds are diluted using DMEM without Phenol Red, 10% FBS, 1× Sodium Pyruvate, lx Glutamax. Add 125 ul of media with compound per well. Cells are treated with compounds at concentration: 30, 10, 3.33, 1.11, 0.37, 0.12, 0.04 and 0.013 uM. Time points are taken at 72 hrs and plate read using plate reader with excitation/emission: 575/620.
Cell binding/permeability is calculated in fold-change (Total RFU of treated samples/total RFU of DMSO treated samples or total RFU above background (Total RFU minus total RFU of DMSO treated samples).

Experiment [1] deals with T1, FKBP12 (Homo sapiens (Human), UniProt P62942). Briefly: AlphaLISA FKBP12 binding: inhibition of binding of biotinylated FK506 to FLAG tagged FKBP12. To be noted: read-out: Binding affinity to FKBP12 (by displacement of FK506). The text has this:
The binding of compounds of the invention to FKBP12 can be determined using the following protocol.
This protocol utilizes Perkin Elmers AlphaLISA technology platform to detect FKBP binders by measuring the inhibition of binding of biotinylated FK506 to FLAG tagged FKBP12.
10×TBST Buffer (Boston BioProducts IBB-181), Biotinylated FK506 (in-house), FLAG tagged FKBP (in-house); anti-FLAG Donor beads (Perkin Elmer AS103) and Streptavidin Acceptor beads (Perkin Elmer AL125); Compounds in DMSO (in-house), FK506.
Experimental Protocol/Description of Assay: Add 20 uL of 12.5 nM FKBP-FLAG working stock to each well of the 96-well plate. Add 1 uL of test compound (100% DMSO) to each well of the plate using the Janus MTD head and P20 tips (except control wells). Add 1 uL of DMSO to negative control wells and 1 uL of 50 uM FK506 solution to positive control wells. In the dark, add 20 uL of combined Donor/Acceptor beads to each well. Incubate in the dark for 30 minutes at room temperature. In the dark, add 10 uL of 5 nM biotinylated FK506 working stock to each well. Incubate in the dark for 60 minutes at room temperature. Protect plate from light until reading on Biotek Synergy2 Plate Reader; Alphalisa 96-well protocol (680 excitation/615 emission).

The target of experiment [2] is T1, FKBP12. Briefly: SPR binding of compound (analyte) to immobilized FKBP12 (Example 7). To be noted: 25° C., 12×HIS tagged FKBP12 immobilized on NTA chip; read-out: SPR affinity to FKBP12: KD. The method, then: This protocol utilizes Surface Plasmon Resonance (SPR) as a method to determine kinetics (KD, Ka, Kd) for the binding of compound (analyte) to immobilized FKBP12 (ligand).
Compound in 100% DMSO (in-house), 10×HBS-P+ buffer (GE Healthcare BR-1006-71), Assay buffer (1×HBS-P+ buffer, 1% DMSO), 12×HIS tagged FKBP12 (in-house).
(§1) Experiments are performed at 25° C. Stock solution of 12×HIS tagged FKBP12 is diluted to 100 nM in assay buffer (1% DMSO final). Approximately 500-600 RU of FKBP12 is immobilized on one of two flow cells of an activated NTA chip. The second flow cell is not activated as a reference for non-specific interaction of the analyte to the sensor chip. Various concentrations of compound (1 nM-1 μM range), serially diluted into the same assay buffer (1% DMSO final), are injected onto the FKBP12 surface and reference surface at a flow rate of 10 μl/min. The surface is regenerated between analyte injections with 350 mM EDTA.
(§2) The BiaEvaluation software program is used for data fitting. All data is reference subtracted against both the reference flow cell and a buffer injection. For kinetic analyses, data is locally fit to a 1:1 interaction model.
(SPR reads the build-up and loss of mass on a sensor chip optically.)

Experiment [3] concerns the target T1, FKBP12. Put plainly: SPR kinetics of Compound 2 and Compound 6 binding to immobilized FKBP12 (Example 8). Conditions: compound to immobilized FKBP12, 25° C. The protocol: This protocol utilizes Surface Plasmon Resonance (SPR) as a method to determine kinetics (KD, Ka, Kd) for the binding of Compound 2 and Compound 6 (analyte) to immobilized FKBP12 (ligand).
Compound 2 and Compound 6 in 100% DMSO (in-house), 10×HBS-P+ buffer (GE Healthcare BR-1006-71), Assay buffer (1×HBS-P+ buffer, 1% DMSO), 12×HIS tagged FKBP12 (in-house).
as §1, with “Compound 2 or Compound 6” for “compound”
as §2

For experiment [4], the target named is CEP25011.4 (residues 2134-2231) (Homo sapiens (Human), UniProt P62942+Q9BV73). Briefly: ITC binding of FKBP12-compound binary complex to CEP250. The method, then:
(§3) This protocol utilizes Isothermal Titration Calorimetry (ITC) to directly measure the heat change associated with binding of FKBP12-Compound 2 and FKBP12-Compound 6 binary complexes to CEP250. Measurement of the heat change allows accurate determination of association constants (Ka), reaction stoichiometry (N), and the change in binding enthalpy (ΔH).
(§4) Compound 2 and Compound 6 in 100% DMSO (in-house), Protein Buffer (10 mM HEPES, pH 7.5, 75 mM NaCl, 0.5 mM TCEP), assay buffer (protein buffer+1% DMSO), FKBP12 (in-house), CEP25029.4 (residues 1982-2231) and CEP25011.4 (residues 2134-2231) (in-house).
(§5) MicroCal™ ITC200 (GE Healthcare) Experimental Protocol: FKBP12 stock solution was diluted to 10 μM in assay buffer (1% DMSO final). Compound was added to FKBP12 to 20 μM (1% DMSO final), and binary complex was filled into the reaction cell of the ITC device after 5-10 min pre-incubation time. CEP250 protein stocks were diluted to 50 μM in assay buffer and supplemented with 20 μM compound (1% DMSO final) before being filled into the injection syringe. A control experiment in the absence of compound was also run to determine the heat associated with operational artifacts and the dilution of titrant as it was injected from the syringe into the reaction cell.

Experiment [5] deals with CEP25029.4 (residues 1982-2231) (Homo sapiens (Human), UniProt P62942+Q9BV73). The experiment is described as above. The method, then:
as §3, §4, §5

Sequence of CEP25011.4 (residues 2134-2231) (Q9BV73 2134-2231): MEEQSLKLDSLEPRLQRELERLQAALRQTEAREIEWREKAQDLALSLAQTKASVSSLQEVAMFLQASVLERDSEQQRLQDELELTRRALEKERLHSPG
Sequence of CEP25011.4 (residues 2134-2231) (P62942 whole entry, the tested form may be a part): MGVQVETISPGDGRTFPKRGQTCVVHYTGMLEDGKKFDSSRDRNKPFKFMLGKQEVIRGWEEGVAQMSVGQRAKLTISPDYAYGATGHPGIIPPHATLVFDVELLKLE
Sequence of CEP25029.4 (residues 1982-2231) (Q9BV73 1982-2231): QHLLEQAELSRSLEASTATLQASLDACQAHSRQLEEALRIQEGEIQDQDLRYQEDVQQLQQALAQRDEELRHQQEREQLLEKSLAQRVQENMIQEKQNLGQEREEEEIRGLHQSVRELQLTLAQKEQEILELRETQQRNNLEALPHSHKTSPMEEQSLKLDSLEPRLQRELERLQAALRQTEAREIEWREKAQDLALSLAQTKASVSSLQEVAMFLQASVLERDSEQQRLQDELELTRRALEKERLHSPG
Sequence of CEP25029.4 (residues 1982-2231) (P62942 whole entry, the tested form may be a part): as the sequence (P62942 whole entry, the tested form may be a part) above
T1 sequence (P62942 whole entry): as the sequence (P62942 whole entry, the tested form may be a part) above

Regarding `CC[C@H](Cc1ccccc1)[C@@H]1/C=C/C/C=C/C[C@@H](C)C(=O)[C@@H](C)[C@@H]2CC[C@@H](C)[C@@](O)(O2)C(=O)C(=O)N2CCCC[C@H]2C(=O)O1` [Compound 9], the IC50 was above 1000 nM in the experiment on HeLa-FKBP12 cells and 785 nM at FKBP12 [1].

In the case of `CC[C@H](Cc1ccccc1)[C@@H]1/C=C/C/C=C/C(=O)[C@@H](C)[C@H](O)[C@@H](C)[C@@H]2CC[C@@H](C)[C@@](O)(O2)C(=O)C(=O)N2CCCC[C@H]2C(=O)O1` [Compound 3], on FKBP12 [1], the IC50 was found to be 0.34 nM. Besides, the dissociation constant (Kd) at FKBP12 [2] stood at 1.3 nM.

On to `CCC(Cc1ccccc1)C1/C=C/C/C=C/CC(C)C(O)C(C)C2CCC(C)C(O)(CC(=O)N3CCCCC3C(=O)O1)O2` (stereo not shown) [Compound 1], for which, on FKBP12 [1], the IC50 was determined as 355 nM. At FKBP12 [2], the Kd came to 71.5 nM.

In the case of `CC[C@H](Cc1ccccc1)[C@@H]1CCCCCC(=O)[C@@H](C)[C@H](O)[C@@H](C)[C@@H]2CC[C@@H](C)C(O)(O2)C(=O)C(=O)N2CCCC[C@H]2C(=O)O1` [Compound 10, (S)-1-(2-((2R,3R,6S)-6-((2R,3R,4S,6E,9E,11R,12R)-12-benzyl-3,11-dihydroxy-4-methyl-5-oxotetradeca-6,9-dien-2-yl)-2-hydroxy-3-methyltetrahydro-2H-pyran-2-yl)-2-oxoacetyl)piperidine-2-carboxylic acid C-11 lactone], the IC50 on FKBP12 [1] came to 0.21 nM.

As to `CC[C@H](Cc1cccc(O)c1)[C@@H]1/C=C/C/C=C/C[C@@H](C)[C@H](O)[C@@H](C)[C@@H]2CC[C@@H](C)C(=O)[C@@](O)(O2)C(=O)N2CCCC[C@H]2C(=O)O1` [Compound 7], the IC50 was below 1000 nM in the experiment with HeLa-FKBP12 cells and 0.95 nM at FKBP12 [1].

Consider `CC[C@H](Cc1ccccc1)[C@@H]1CCCCCC[C@@H](C)[C@H](O)[C@@H](C)[C@@H]2CC[C@@H](C)C(=O)C(O)(O2)C(=O)N2CCCC[C@H]2C(=O)O1` [Compound 6, (2S)-1-((4R,7S)-7-((2R,3S,4R,11 S,12R)-12-benzyl-3,11-dihydroxy-4-methyltetradecan-2-yl)-2-hydroxy-4-methyl-3-oxooxepane-2-carbonyl)piperidine-2-carboxylic acid C-11 lactone], for which the koff on FKBP12 [3] was determined as 0.0088 s⁻¹. For the same molecule, the kon at FKBP12 [3] (read-out: Ka) is 567000 M⁻¹ s⁻¹. Moreover, the dissociation constant Kd in experiment [4] was 80 nM; in experiment [5], 360 nM. For the same molecule, the ΔH in experiment [4] (ITC, FKBP12 10 μM in cell, CEP25011.4 68 μM in syringe, ligand 20 μM, 298 K) is -11.42 kcal/mol; in experiment [5] (ITC, FKBP12 10 μM in cell, CEP25029.4 118 μM in syringe, ligand 20 μM, 298 K), -13.98 kcal/mol. Further, the ΔG in experiment [4] (ITC, FKBP12 10 μM, CEP25011.4 68 μM, ligand 20 μM, 298 K, ΔG = −RT ln Ka) was -9.646 kcal/mol; in experiment [5] (ITC, FKBP12 10 μM, CEP25029.4 118 μM, ligand 20 μM, 298 K, ΔG = −RT ln Ka) it was -8.781 kcal/mol. Besides, the “−T*ΔS” value in experiment [4] (ITC, FKBP12 10 μM, CEP25011.4 68 μM, ligand 20 μM, 298 K, −TΔS = ΔG − ΔH) was determined as 1.77 kcal/mol; in experiment [5] (ITC, FKBP12 10 μM, CEP25029.4 118 μM, ligand 20 μM, 298 K, −TΔS = ΔG − ΔH) it was 5.194 kcal/mol.

As to `CC[C@H](Cc1ccccc1)[C@@H]1/C=C/C/C=C/C[C@@H](C)[C@H](O)[C@@H](C)[C@@H]2CC[C@@H](C)C(=O)C(O)(O2)C(=O)N2CCC[C@H]2C(=O)O1` [Compound 4], at FKBP12 [1], the IC50 was determined as 4.8 nM. Further, on FKBP12 [2], the equilibrium dissociation constant (Kd) came to 23.1 nM.

Consider `CC[C@H](Cc1ccccc1)[C@@H]1/C=C/C=C/CC(=O)[C@@H](C)[C@H](O)[C@@H](C)[C@@H]2CC[C@@H](C)C(=O)C(O)(O2)C(=O)N2CCCC[C@H]2C(=O)O1` [Compound 5], for which the IC50 at FKBP12 [1] amounted to 18.8 nM. At FKBP12 [2], the Kd was 7 nM.

Regarding `CC[C@H](Cc1cccc(O)c1)[C@@H]1/C=C/C/C=C/C[C@@H](C)[C@H](O)[C@@H](C)[C@@H]2CC[C@@H](C)[C@@](O)(O2)C(=O)C(=O)N2CCCC[C@H]2C(=O)O1` [Compound 8], the IC50 was below 1000 nM in the experiment with HeLa-FKBP12 cells and 1.1 nM on FKBP12 [1].

The term Kd denotes the concentration at which binding is half-saturated. For orientation: koff means the first-order rate constant of dissociation. Lower therefore signals a long-lived complex.

These data come from patent US11059830B2, “Compounds that participate in cooperative binding and uses thereof” (Revolution Medicines, Inc., priority 2015, dated 2021).
